The values that follow come from patent US12516081B2, “Anti-viral compounds and methods of use” (Metro International Biotech, LLC, priority 2020, dated 2026).

One series concerns SARS-CoV-2, USA-WA1/2020. The series can be described thus: Antiviral assay: inhibition of SARS-CoV-2 cytopathic effect (neutral red) in Vero 76 cells. The following applies: read-out: Anti-viral Assay (EC50). In kind it is cell-based. In general terms: Damage to the host cells serves as the signal in cytopathic effect assays.
A further series relates to NAD in murine liver. The series is described as follows: In vivo NAD assay, mouse liver. The conditions noted are these: 500 mg/kg oral, mice. The protocol: FIG. 1 provides the mean composite NAD assayed concentration in mouse liver cells. The Y-axis is concentration in mmol/kg. […] The left-most bar at each time point is vehicle, the central bar is reference compound nicotinamide mononucleotide (NMN), and the right-most bar at each time point is Compound 2. Each compound is administered orally to mice at 500 mg/kg.
(§1) In vivo NAD and NAAD assay: Animals were dosed with 500 mg/kg of test compound or reference compound in vehicle.

Series [1] relates to NAAD in murine skeletal muscle. The series is described as follows: In vivo NAAD assay, mouse skeletal muscle. The conditions noted are these: 500 mg/kg oral, mice, 8 hour time point, FIG. 2. The method, then:
FIG. 2 provides the mean composite NAAD assayed concentration in mouse skeletal muscle cells. The Y-axis is concentration in mmol/kg. […] The left-most bar at each time point is vehicle, the central bar is reference compound nicotinamide mononucleotide (NMN), and the right-most bar at each time point is Compound 2. Each compound is administered orally to mice at 500 mg/kg.
as §1

Where [2] appears, read: concentration inhibiting CPE by 50%; i) and ii) are separate determinations.

Like-named read-outs stand apart in the source and are kept apart here.

The term EC50 denotes the concentration at which the effect is half-maximal. As to `N#C[C@@]1(c2ccc3c(N)ncnn23)O[C@H](COP(=O)([O-])OC[C@H]2O[C@@H]([n+]3cccc(C(=O)O)c3)[C@H](O)[C@@H]2O)[C@@H](O)[C@H]1O` [Compound 1, ((2R,3S,4R,5R)-5-(4-aminopyrrolo[2,1-f][1,2,4]triazin-7-yl)-5-cyano-3,4-dihydroxytetrahydrofuran-2-yl)methyl (((2R,3S,4R,5R)-5-(3-carboxy-1λ^4-pyridin-1-yl)-3,4-dihydroxytetrahydrofuran-2-yl)methyl)_phosphate], the EC50 in the series with SARS-CoV-2, USA-WA1/2020 (Severe acute respiratory syndrome coronavirus 2, Vero 76, 120 h, concentration inhibiting CPE by 50%; Vero 76 cells, neutral red, day 5 post-infection; i) and ii) are separate determinations) came out at 17 µM; with SARS-CoV-2, USA-WA1/2020 (concentration inhibiting CPE by 50%; Vero 76 cells, neutral red, day 5 post-infection; i) and ii) are separate determinations), 31 µM.
In the case of `NC(=O)c1ccc[n+]([C@@H]2O[C@H](COP(=O)([O-])O)[C@@H](O)[C@H]2O)c1` [Nicotinamide mononucleotide (NMN), Nicotinamide mononucleotide, reference compound], the EC50 in the series on SARS-CoV-2, USA-WA1/2020 (setting [2]) is more than 2000 µM.
As to `CCC(CC)COC(=O)[C@H](C)N[P@](=O)(OC[C@H]1O[C@@](C#N)(c2ccc3c(N)ncnn23)[C@H](O)[C@@H]1O)Oc1ccccc1` [Remdesivir, reference compound], the EC50 in the series with SARS-CoV-2, USA-WA1/2020 (Severe acute respiratory syndrome coronavirus 2, Vero 76, 120 h; concentration inhibiting CPE by 50%; i) and ii) are separate determinations) was 1.9 to 6 µM.
Take “((2R,3S,4R,5R)-5-(3-((((2R,3S,4R,5R)-5-(4-aminopyrrolo[2,1-f][1,2,4]triazin-7-yl)-5-cyano-3,4-dihydroxytetrahydrofuran-2-yl)methoxy)carbonyl)-1λ^4-pyridin-1-yl)-3,4-dihydroxytetrahydrofuran-2-yl)methyl hydrogen phosphate [Compound 2]”: the Oral availability result in the series with NAD in murine liver was “orally available”. The “NAD level in murine liver” value in the series on NAD in murine liver (8 hour time point, FIG. 1) is “boosted”. The “NAAD level in murine skeletal muscle” value in series [1] is listed as “boosted”.
In the case of “NAR-2′C-Methyl-6-O-methyl-5′-guanosine ester [Compound 6]”, the EC50 in the series with SARS-CoV-2, USA-WA1/2020 (setting [2]) was more than 100 µM.
Still for that read-out and setting: in the case of “NAR-2′C-methyl 5′-uridine ester [Compound 4]” it was more than 100 µM; in that of “NAR-2′C-methyl-5′-cytidine ester [Compound 5]”, more than 100 µM.
On the same count and under the same terms, in the case of “NAR-2′C-methyl-5′-guanosine ester [Compound 3]” it was more than 100 µM.
